The text below walks through data of patent US6413944B1 (Regents of the University of Michigan, priority 1991, dated 2002).

Each structure is given as a SMILES string. Read-outs that look alike come from different tables or passages of the source.

One series concerns HIV-1. As to the kind of experiment: microbe, parasite or virus in culture. Conditions: for IC50: Human immunodeficiency virus 1, CEM-SS. On the procedure: CEM-SS cells were seeded at 10,000 cells per well into 96-cell plates precoated with poly L-lysine. The cell monolayers were infected with about 50 plaque forming units of HIV-1. After 1 hr for virus attachment, the cell monolayers were overlaid with growth medium with or without added test compound. After 3 days incubation at 37° C. in a CO2 incubator, the cell monolayers received a second overlay of growth medium with or without added test compound and incubation at 37° C. continued for a total of 5 days. HIV-1 plaques were counted, the counts entered into a computer and a IC50 for HIV-1 plaque formation was determined. Each experiment was replicated at least once.
Dose-response relationships were used to compare drug effects. These were constructed by linearly regressing the percent inhibition of parameters derived in the preceding sections against log drug concentrations. The 50% inhibitory (I50) concentrations were calculated from the regression lines.

Series [1] is described as follows: Cytotoxicity by uptake of [3H]thymidine in uninfected CEM-SS cells. In kind it is cell-based. The settings on record: human; uptake of [3H]thymidine in uninfected CEM-SS cells (Table I); read-out: 50% Inhibitory Concentration, Cytotoxicity.
Method: CEM-SS cells were seeded in 96 well plates (10,000 cells per well) in growth medium containing various concentrations of test compound and incubated at 37° C. in a CO2 incubator. After 36 hours incubation the cells were pulse-labeled for 4 hours at 37° C. with 1 μCi ^3H-TdR uptake into cellular DNA. Controls consisted of CEM-SS cells not treated with drug and pulse-labeled for 4 hours with [^3H]thymidine (positive control) or harvested immediately after addition of [^3H]thymidine (negative control). The harvested samples were counted by scintillation spectrometry to obtain a mean±one S.D. for each set of triplicate wells. The data were entered into a computer and used to determine a IC50 for cell cytotoxicity. Each experiment was replicated at least once.
Another series concerns HCMV. The experiment in a line: HCMV plaque (focus) reduction assay in HFF cells. In kind it is cell-based, human cytomegalovirus. Conditions: in words.
For another series, the system named is HIV. In kind it is cell-based. Conditions: persistently infected monocyte/macrophages and T-cells; reverse transcriptase, p24 core antigen, infectious virus; in words.
A further series has as its target RT (Human immunodeficiency virus type 1 group M subtype B, UniProt P04585). The experiment in a line: RT inhibition assays. Conditions: in words. In kind it is biochemical.

Take `Cc1cn([C@H]2C[C@H](N=[N+]=[N-])[C@@H](CO)O2)c(=O)[nH]c1=O` [AZT, zidovudine]: the IC50 with HIV-1 (read-out: 50% Inhibitory Concentration, Antiviral Activity: HIV, syncytial assay in CEM-SS cells (Table I)) is 2.7 nM; with HIV-1 (read-out: Syncytial Assay 50% Inhibitory Concentration, HIV-1G-691 (post AZT therapy), clinical isolate resistant to AZT) it was 210 nM; in the series with HIV-1 (read-out: Syncytial Assay 50% Inhibitory Concentration, HIV-1G-762 (pre AZT therapy), clinical isolate sensitive to AZT), 0.2 nM; with HIV-1 (read-out: Syncytial Assay 50% Inhibitory Concentration, HIV-1G-910 (post AZT therapy)) it was 7200 nM; in the series on HIV-1 (read-out: Syncytial Assay 50% Inhibitory Concentration, HIV-1H-1112 (pre AZT therapy)) it was below 1 nM; with HIV-1 (read-out: Syncytial Assay 50% Inhibitory Concentration, HIV-1IIIB (Table III)) it was 2 nM. Also, in the series on HIV-1 (cytotoxicity in CEM-SS cells versus HIV syncytial assay), the “Differential Selectivity (HIV)” value was 1852. Also, the IC50 at 36 h in series [1] came to 5000 nM. Further, the “activity against HCMV” value with HCMV was “inactive”. The “activity in reducing HIV production in persistently infected cells” value in the series on HIV is “not active”.

As to `CN1N=C(N)c2cn(C3OC(COP(=O)(O)OP(=O)(O)OP(=O)(O)O)C(O)C3O)c3ncnc1c23` (stereo not drawn) [TCN-triphosphate], the “inhibition of RT enzyme” value on RT is recorded as “do not act via inhibition of this enzyme”.

In the case of `Nc1ccn([C@H]2CC[C@@H](CO)O2)c(=O)n1` [ddC, dideoxycytidine], the “activity in reducing HIV production in persistently infected cells” value with HIV is listed as “not active”.
